According to paper PMC9889749, “CID12261165, a flavonoid compound as antibacterial agents against quinolone-resistant Staphylococcus aureus” (Scientific Reports, 2023):

Tests used:
Format in all cases: biochemical
[1] = target: T1, DNA gyrase (wild-type GyrA + GyrB) (Staphylococcus aureus, UniProt P20831); assay: in vitro DNA cleavage assay and DNA supercoiling assay with recombinant gyrase
T1 construct: wild-type GyrA from strain FDA209P; with GyrB

[2] = target: T2, topoisomerase IV (wild-type ParC) (Staphylococcus aureus, UniProt Q2FYS4); assay: in vitro DNA cleavage assay with recombinant topoisomerase IV
T2 construct: wild-type ParC from strain FDA209P; with ParE

[3] = target: T3, DNA gyrase (GyrA S84L + wild-type GyrB) (Staphylococcus aureus, UniProt Q932M0); assay: in vitro DNA cleavage assay and DNA supercoiling assay with recombinant gyrase
T3 construct: GyrA(S84L) from strain Mu50; with GyrB

Structure (SMILES) | in vitro DNA cleavage assay and DNA supercoiling assay with recombinant gyrase [1] | IC50 [2] [nM] | IC50 [3] [µg/mL]
C[C@H]1COc2c(N3CCN(C)CC3)c(F)cc3c(=O)c(C(=O)O)cn1c23 [Levofloxacin] | using levofloxacin as a compound of interest, failure of DNA supercoiling activity was decreased upon acquisition of S84L mutation | 1380 | 
COc1ccc2c(=O)cc(-c3ccc(O)c(OC)c3)oc2c1 [CID12261165] |  |  | 4
